Source: patent publication US12042539B2, “Compositions and kits for Omeprazole suspension” (Azurity Pharmaceuticals, Inc., priority 2019, dated 2024)
Values after ≈ are worked out from the molar mass of the structure shown. Read-outs that look alike come from different tables or passages of the source.

Columns and labels:
[1] = increase in poloxamer concentration beyond 10 mg/mL; cited from earlier work
[2] = Related substance (omeprazole impurities) at stability time points; format: physicochemical; conditions: Omeprazole API
Source text: Monitoring the trend of increase in chemical impurities/related substances is important with respect to stability of a formulation. Related substance data developed during stability studies of a formulation play a crucial role with respect to determining a useable shelf life for a formulation.
Specification: • a. […] 5-Methoxy-1H-Benzimidazol-2-thiol: NMT 0.50% • c. Omeprazole sulphone N-Oxide: NMT 0.50% • d. Omeprazole N-Oxide: NMT 0.50% • e. Omeprazole Sulphone: NMT 0.50% • f Omeprazole 4-Chloro analog (IMP-H): NMT 0.50% • g. Sulphide (Ufiprazole): NMT 0.50% • h. Desmethoxy Omeprazole: NMT 0.50% • i. Any other individual impurity: NMT 0.20% • j. Total impurities: NMT 2.0%

[3] = Phase solubility of omeprazole at different concentrations of poloxamer 188; format: physicochemical; conditions: for solubility: thermodynamic from solid, read-out: Soluble fraction
[4] = PXRD of reconstituted suspensions (polymorphic form of omeprazole API); format: physicochemical; conditions: 3M and 6M Day 30, 25° C./60% RH and 2-8° C.
Protocol: To evaluate the polymorphic characteristic of omeprazole API during reconstitution stability studies, the reconstituted suspensions were analyzed by X-ray diffraction (XRD) at 3M and 6M time points at 25° C./60% RH and 2-8° C. conditions.

[5] = cited from earlier work
[6] = cited from earlier work; remark: listed apart in the source
[7] = biological target: P-glycoprotein (Homo sapiens, UniProt P08183); conditions: cited from earlier work
P-glycoprotein, sequence (P08183 whole entry): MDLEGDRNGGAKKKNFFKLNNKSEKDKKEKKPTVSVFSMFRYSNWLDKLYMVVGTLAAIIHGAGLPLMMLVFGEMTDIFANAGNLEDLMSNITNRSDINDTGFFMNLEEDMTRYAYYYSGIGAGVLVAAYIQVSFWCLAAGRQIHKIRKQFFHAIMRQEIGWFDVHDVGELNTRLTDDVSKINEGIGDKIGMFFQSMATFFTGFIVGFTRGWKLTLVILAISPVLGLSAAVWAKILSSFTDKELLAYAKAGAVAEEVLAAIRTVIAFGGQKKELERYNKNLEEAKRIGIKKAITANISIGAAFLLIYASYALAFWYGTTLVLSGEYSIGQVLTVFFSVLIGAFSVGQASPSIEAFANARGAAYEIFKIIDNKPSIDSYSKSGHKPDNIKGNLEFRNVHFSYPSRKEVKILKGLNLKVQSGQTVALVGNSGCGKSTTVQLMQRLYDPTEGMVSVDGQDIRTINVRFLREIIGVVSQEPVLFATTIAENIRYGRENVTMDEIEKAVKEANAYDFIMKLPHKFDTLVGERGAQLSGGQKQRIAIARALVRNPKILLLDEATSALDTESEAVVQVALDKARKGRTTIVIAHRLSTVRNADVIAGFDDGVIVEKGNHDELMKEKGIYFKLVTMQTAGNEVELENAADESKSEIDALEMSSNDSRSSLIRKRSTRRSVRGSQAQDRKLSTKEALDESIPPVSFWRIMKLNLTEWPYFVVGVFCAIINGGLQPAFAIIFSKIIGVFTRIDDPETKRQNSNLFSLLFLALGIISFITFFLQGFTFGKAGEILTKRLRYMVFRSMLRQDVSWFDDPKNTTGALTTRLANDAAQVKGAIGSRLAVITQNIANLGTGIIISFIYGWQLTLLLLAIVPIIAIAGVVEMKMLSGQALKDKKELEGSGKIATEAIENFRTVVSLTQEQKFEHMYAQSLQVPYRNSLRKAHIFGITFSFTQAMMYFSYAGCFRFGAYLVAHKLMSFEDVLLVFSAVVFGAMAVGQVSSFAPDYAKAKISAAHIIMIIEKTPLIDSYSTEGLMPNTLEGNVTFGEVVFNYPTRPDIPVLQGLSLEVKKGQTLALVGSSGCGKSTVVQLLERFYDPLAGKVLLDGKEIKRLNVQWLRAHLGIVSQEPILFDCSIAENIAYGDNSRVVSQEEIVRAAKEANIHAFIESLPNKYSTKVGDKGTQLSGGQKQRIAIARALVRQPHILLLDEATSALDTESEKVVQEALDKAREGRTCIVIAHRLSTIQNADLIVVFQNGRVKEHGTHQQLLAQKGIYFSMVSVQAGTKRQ

CC(C)(C)NCC(O)COc1cccc2c1CC(O)C(O)C2 (centres unmarked) [nadolol]
Effect of poloxamer on permeability [1]: didn't show a significant effect

COc1ccc2[nH]c([S+]([O-])Cc3ncc(C)c(OC)c3C)nc2c1 (centres unmarked) [Omeprazole]
Related Substance: Omeprazole F&G [2]: 0.031%
Related Substance: Omeprazole sulphone N-Oxide [2]: Not Detected
Related Substance: Total impurities [2]: 0.05%
Related Substance: 5-Methoxy Benzamidazole 2 thiol ([2]; LOQ (0.01%)): Less than LOQ
Related Substance: Desmethoxy Omeprazole ([2]; LOQ (0.01%)): Less than LOQ
Related Substance: Omeprazole 4-Chloro analog (IMP-H) ([2]; LOQ (0.01%)): Less than LOQ
Related Substance: Omeprazole N-Oxide ([2]; LOQ (0.01%)): Less than LOQ
Related Substance: Omeprazole Sulphide ([2]; LOQ (0.01%)): Less than LOQ
Related Substance: Omeprazole Sulphone (IMP-A) ([2]; LOQ (0.01%)): Less than LOQ
Soluble fraction (%) ([3]; 0 % w/v Poloxamer Content): 10.9%
solubility ([3]; 0% w/v poloxamer 188 (base solvent not stated), 0 % w/v Poloxamer Content): 218 µg/mL (≈ 631 µM)
Soluble fraction (%) ([3]; 0.5 % w/v Poloxamer Content): 15.6%
Soluble fraction (%) ([3]; 1 % w/v Poloxamer Content): 17.1%
Soluble fraction (%) ([3]; 2 % w/v Poloxamer Content): 47.8%
Soluble fraction (%) ([3]; 4 % w/v Poloxamer Content): 47.3%
Omeprazole solubility ([3]; at higher poloxamer 188 content (above 1% w/v)): increased significantly
solubility ([3]; poloxamer 188 at 2% w/v (base solvent not stated), aqueous with cosolvent or surfactant or cyclodextrin, 2 % w/v Poloxamer Content): 957 µg/mL (≈ 2770 µM)
solubility ([3]; poloxamer 188 at 4% w/v (base solvent not stated), aqueous with cosolvent or surfactant or cyclodextrin, 4 % w/v Poloxamer Content): 946 µg/mL (≈ 2740 µM)
solubility ([3]; poloxamer 188 solution (0.5% w/v), aqueous with cosolvent or surfactant or cyclodextrin, 0.5 % w/v Poloxamer Content): 313 µg/mL (≈ 906 µM)
solubility ([3]; poloxamer 188 solution (1% w/v), aqueous with cosolvent or surfactant or cyclodextrin, 1 % w/v Poloxamer Content): 342 µg/mL (≈ 990 µM)
Impact of poloxamer 188 content on omeprazole solubility ([3]; up to 1% w/v poloxamer 188): did not show any significant impact
Polymorphic form conversion (PXRD) [4]: no polymorphic form conversion
half-life ([5]; in vivo): 30 to 60 min
Peak Plasma concentration, time to achieve ([5]; marketed formulations of omeprazole): very rapidly
Log P [6]: 2.43
solubility ([6]; in water): Very slightly soluble in water
P-gp inhibition effects [7]: does not have P-gp inhibition effects
P-gp substrate [7]: moderate P-gp substrate
